Source: ChEMBL document CHEMBL3232809, “Synthesis, antibiotic activity and structure-activity relationship study of some 3-enaminetetramic acids” (2014)
Values after ≈ are worked out from the molar mass of the structure shown.

test system: Streptococcus pneumoniae; assay: Antimicrobial activity against penicillin- and erythromycin-resistant Streptococcus pneumoniae; format: functional

Row | SMILES | MIC
1 | CCCCCCN1CC(=O)/C(=C(/NC2CCCCC2)C2CCCCC2)C1=O | 2 µg/mL (≈ 5.34 µM)
2 | CCCC(=O)N1CC(=O)/C(=C(\CC23CC4CC(CC(C4)C2)C3)NCCCN2CCOCC2)C1=O | 64 µg/mL (≈ 136 µM)
3 | CCCC(=O)N1CC(=O)/C(=C(\CC23CC4CC(C)(CC(C)(C4)C2)C3)NCCCN2CCOCC2)C1=O | 16 µg/mL (≈ 32 µM)

test system: Streptococcus pneumoniae; assay: Antimicrobial activity against penicillin- and erythromycin-resistant Streptococcus pneumoniae in presence of 2.5% horse blood; format: functional

Row | SMILES | MIC
4 | CCCCCCN1CC(=O)/C(=C(/NC2CCCCC2)C2CCCCC2)C1=O | 64 µg/mL
5 | CCCC(=O)N1CC(=O)/C(=C(\CC23CC4CC(CC(C4)C2)C3)NCCCN2CCOCC2)C1=O | 64 µg/mL
6 | CCCC(=O)N1CC(=O)/C(=C(\CC23CC4CC(C)(CC(C)(C4)C2)C3)NCCCN2CCOCC2)C1=O | 32 µg/mL

test system: Staphylococcus aureus; assay: Antimicrobial activity against methicillin-sensitive Staphylococcus aureus ATCC 13709; format: functional

Row | SMILES | MIC
7 | CCCCCCN1CC(=O)/C(=C(/NC2CCCCC2)C2CCCCC2)C1=O | > 64 µg/mL
8 | CCCC(=O)N1CC(=O)/C(=C(\CC23CC4CC(CC(C4)C2)C3)NCCCN2CCOCC2)C1=O | > 64 µg/mL
9 | CCCC(=O)N1CC(=O)/C(=C(\CC23CC4CC(C)(CC(C)(C4)C2)C3)NCCCN2CCOCC2)C1=O | > 64 µg/mL

test system: Staphylococcus aureus; assay: Antimicrobial activity against vancomycin-susceptible Staphylococcus aureus ATCC 25923; format: functional

Row | SMILES | MIC
10 | CCCCCCN1CC(=O)/C(=C(/NC2CCCCC2)C2CCCCC2)C1=O | > 64 µg/mL
11 | CCCC(=O)N1CC(=O)/C(=C(\CC23CC4CC(CC(C4)C2)C3)NCCCN2CCOCC2)C1=O | > 64 µg/mL
12 | CCCC(=O)N1CC(=O)/C(=C(\CC23CC4CC(C)(CC(C)(C4)C2)C3)NCCCN2CCOCC2)C1=O | > 64 µg/mL

test system: Staphylococcus aureus; assay: Antimicrobial activity against Staphylococcus aureus Oxford; format: functional

Row | SMILES | MIC
13 | CCCCCCN1CC(=O)/C(=C(/NC2CCCCC2)C2CCCCC2)C1=O | > 64 µg/mL
14 | CCCC(=O)N1CC(=O)/C(=C(\CC23CC4CC(CC(C4)C2)C3)NCCCN2CCOCC2)C1=O | > 64 µg/mL
15 | CCCC(=O)N1CC(=O)/C(=C(\CC23CC4CC(C)(CC(C)(C4)C2)C3)NCCCN2CCOCC2)C1=O | > 64 µg/mL

test system: Staphylococcus aureus; assay: Antimicrobial activity against methicillin-resistant Staphylococcus aureus; format: functional

Row | SMILES | MIC
16 | CCCCCCN1CC(=O)/C(=C(/NC2CCCCC2)C2CCCCC2)C1=O | > 64 µg/mL
17 | CCCC(=O)N1CC(=O)/C(=C(\CC23CC4CC(CC(C4)C2)C3)NCCCN2CCOCC2)C1=O | > 64 µg/mL
18 | CCCC(=O)N1CC(=O)/C(=C(\CC23CC4CC(C)(CC(C)(C4)C2)C3)NCCCN2CCOCC2)C1=O | > 64 µg/mL

test system: Enterococcus faecalis; assay: Antimicrobial activity against vancomycin-susceptible Enterococcus faecalis ATCC 29212; format: functional

Row | SMILES | MIC
19 | CCCCCCN1CC(=O)/C(=C(/NC2CCCCC2)C2CCCCC2)C1=O | > 64 µg/mL
20 | CCCC(=O)N1CC(=O)/C(=C(\CC23CC4CC(CC(C4)C2)C3)NCCCN2CCOCC2)C1=O | > 64 µg/mL
21 | CCCC(=O)N1CC(=O)/C(=C(\CC23CC4CC(C)(CC(C)(C4)C2)C3)NCCCN2CCOCC2)C1=O | > 64 µg/mL

test system: Enterococcus faecium; assay: Antimicrobial activity against vancomycin-resistant Enterococcus faecium; format: functional

Row | SMILES | MIC
22 | CCCCCCN1CC(=O)/C(=C(/NC2CCCCC2)C2CCCCC2)C1=O | > 64 µg/mL
23 | CCCC(=O)N1CC(=O)/C(=C(\CC23CC4CC(CC(C4)C2)C3)NCCCN2CCOCC2)C1=O | > 64 µg/mL
24 | CCCC(=O)N1CC(=O)/C(=C(\CC23CC4CC(C)(CC(C)(C4)C2)C3)NCCCN2CCOCC2)C1=O | > 64 µg/mL

test system: Streptococcus pneumoniae; assay: Antimicrobial activity against erythromycin-susceptible Streptococcus pneumoniae ATCC 49619; format: functional

Row | SMILES | MIC
25 | CCCCCCN1CC(=O)/C(=C(/NC2CCCCC2)C2CCCCC2)C1=O | 2 µg/mL (≈ 5.34 µM)
26 | CCCC(=O)N1CC(=O)/C(=C(\CC23CC4CC(CC(C4)C2)C3)NCCCN2CCOCC2)C1=O | 64 µg/mL (≈ 136 µM)
27 | CCCC(=O)N1CC(=O)/C(=C(\CC23CC4CC(C)(CC(C)(C4)C2)C3)NCCCN2CCOCC2)C1=O | 16 µg/mL (≈ 32 µM)

test system: Haemophilus influenzae; assay: Antimicrobial activity against Haemophilus influenzae ATCC 31517 MMSA; format: functional

Row | SMILES | MIC
28 | CCCCCCN1CC(=O)/C(=C(/NC2CCCCC2)C2CCCCC2)C1=O | > 64 µg/mL
29 | CCCC(=O)N1CC(=O)/C(=C(\CC23CC4CC(CC(C4)C2)C3)NCCCN2CCOCC2)C1=O | > 64 µg/mL
30 | CCCC(=O)N1CC(=O)/C(=C(\CC23CC4CC(C)(CC(C)(C4)C2)C3)NCCCN2CCOCC2)C1=O | > 64 µg/mL

test system: Haemophilus influenzae; assay: Antimicrobial activity against LS2 Efflux knock-out Haemophilus influenzae; format: functional

Row | SMILES | MIC
31 | CCCCCCN1CC(=O)/C(=C(/NC2CCCCC2)C2CCCCC2)C1=O | > 64 µg/mL
32 | CCCC(=O)N1CC(=O)/C(=C(\CC23CC4CC(CC(C4)C2)C3)NCCCN2CCOCC2)C1=O | 16 µg/mL (≈ 33.9 µM)
33 | CCCC(=O)N1CC(=O)/C(=C(\CC23CC4CC(C)(CC(C)(C4)C2)C3)NCCCN2CCOCC2)C1=O | 8 µg/mL (≈ 16 µM)

test system: Escherichia coli; assay: Antimicrobial activity against Escherichia coli ATCC 25922; format: functional

Row | SMILES | MIC
34 | CCCCCCN1CC(=O)/C(=C(/NC2CCCCC2)C2CCCCC2)C1=O | > 32 µg/mL
35 | CCCC(=O)N1CC(=O)/C(=C(\CC23CC4CC(CC(C4)C2)C3)NCCCN2CCOCC2)C1=O | > 32 µg/mL
36 | CCCC(=O)N1CC(=O)/C(=C(\CC23CC4CC(C)(CC(C)(C4)C2)C3)NCCCN2CCOCC2)C1=O | > 32 µg/mL

test system: Escherichia coli; assay: Antimicrobial activity against Escherichia coli 50; format: functional

Row | SMILES | MIC
37 | CCCCCCN1CC(=O)/C(=C(/NC2CCCCC2)C2CCCCC2)C1=O | > 32 µg/mL
38 | CCCC(=O)N1CC(=O)/C(=C(\CC23CC4CC(CC(C4)C2)C3)NCCCN2CCOCC2)C1=O | > 32 µg/mL
39 | CCCC(=O)N1CC(=O)/C(=C(\CC23CC4CC(C)(CC(C)(C4)C2)C3)NCCCN2CCOCC2)C1=O | > 32 µg/mL

test system: Pseudomonas aeruginosa; assay: Antimicrobial activity against Pseudomonas aeruginosa ATCC 27853; format: functional

Row | SMILES | MIC
40 | CCCCCCN1CC(=O)/C(=C(/NC2CCCCC2)C2CCCCC2)C1=O | > 32 µg/mL
41 | CCCC(=O)N1CC(=O)/C(=C(\CC23CC4CC(CC(C4)C2)C3)NCCCN2CCOCC2)C1=O | > 32 µg/mL
42 | CCCC(=O)N1CC(=O)/C(=C(\CC23CC4CC(C)(CC(C)(C4)C2)C3)NCCCN2CCOCC2)C1=O | > 32 µg/mL

test system: Escherichia coli; assay: Antimicrobial activity against Escherichia coli 49; format: functional

Row | SMILES | MIC
43 | CCCCCCN1CC(=O)/C(=C(/NC2CCCCC2)C2CCCCC2)C1=O | > 32 µg/mL
44 | CCCC(=O)N1CC(=O)/C(=C(\CC23CC4CC(CC(C4)C2)C3)NCCCN2CCOCC2)C1=O | > 32 µg/mL
45 | CCCC(=O)N1CC(=O)/C(=C(\CC23CC4CC(C)(CC(C)(C4)C2)C3)NCCCN2CCOCC2)C1=O | > 32 µg/mL
